From patent US20230233569A1 (Revolution Medicines, Inc., priority 2020, published 2023)
Read-outs that look alike come from different tables or passages of the source.

Legend:
[1] = biological target: NRAS Q61R (Homo sapiens, UniProt P01111+P62937, Q61R); assay: Disruption of BRAF RBD interaction with Ras (FRET / MOA assay, with Cyclophilin A); format: biochemical
How it was run: (§1)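 TR-FRET in 25 mM HEPES pH 7.3, 100 mM NaCl, 5 mM MgCl2, 0.1% BSA: 25 μM Cyclophilin A, 12.5 nM His6-Ras-GMPPNP, 50 nM GST-BRAF RBD with compound (10-point 3-fold series from 30 μM), 3 h at 25° C. Anti-His Eu/anti-GST APC added, 1.5 h more; IC50 from decreased FRET ratio versus DMSO.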

[2] = biological target: KRAS Q61H (Homo sapiens, UniProt P01116+P62937, Q61H); assay: as above; format: biochemical
KRAS Q61H, sequence (P01116 1-169 isoform P01116-2 Q61H limits assumed): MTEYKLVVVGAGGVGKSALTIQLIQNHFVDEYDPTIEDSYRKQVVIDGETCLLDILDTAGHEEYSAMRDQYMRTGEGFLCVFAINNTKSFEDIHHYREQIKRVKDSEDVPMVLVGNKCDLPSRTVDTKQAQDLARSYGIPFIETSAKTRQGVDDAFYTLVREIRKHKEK
KRAS Q61H, sequence (P62937 whole entry): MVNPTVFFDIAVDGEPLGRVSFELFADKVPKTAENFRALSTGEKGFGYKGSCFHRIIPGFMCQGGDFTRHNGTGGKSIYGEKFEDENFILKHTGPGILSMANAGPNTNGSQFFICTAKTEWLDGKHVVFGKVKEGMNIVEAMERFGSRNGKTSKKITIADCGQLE
How it was run: as §1

[3] = biological target: NRAS Q61K (Homo sapiens, UniProt P01111+P62937, Q61K); assay: as above; format: biochemical
NRAS Q61K, sequence (P01111 whole entry Q61K): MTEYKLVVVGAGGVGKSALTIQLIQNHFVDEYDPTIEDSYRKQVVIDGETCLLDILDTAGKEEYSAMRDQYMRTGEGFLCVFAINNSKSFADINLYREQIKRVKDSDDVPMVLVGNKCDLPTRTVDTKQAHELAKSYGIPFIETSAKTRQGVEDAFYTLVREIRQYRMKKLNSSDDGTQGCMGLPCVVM
NRAS Q61K, sequence (P62937 whole entry): as the sequence (P62937 whole entry) above
How it was run: as §1

[4] = biological target: NRAS WT (Homo sapiens, UniProt P01111+P62937); assay: as above; format: biochemical
NRAS WT, sequence (P01111 whole entry): as the sequence (P01111 whole entry Q61K) above, with K61Q counted along it
NRAS WT, sequence (P62937 whole entry): as the sequence (P62937 whole entry) above
How it was run: as §1

[5] = test system: Capan-1 (K-Ras G12V); assay: CellTiter-Glo cell viability assay, 5-day treatment; format: cell-based; settings: Homo sapiens, CAPAN-1, 120 h, 5-day treatment; read-out: Capan-1 Cell Viability assay data (K-Ras G12V, IC50)
How it was run: (§2)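 Compounds were dispensed directly onto seeded cells and incubated for 5 days, then plates were equilibrated to room temperature for about 30 minutes before luminescence reading. Signals were expressed as percent of the mean DMSO control and fitted with a four-parameter logistic curve.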

[6] = test system: NCI-H358 (K-Ras G12C); assay: as above; format: cell-based; settings: Homo sapiens, NCI-H358, 120 h, 5-day treatment; read-out: H358 Cell Viability assay data (K-Ras G12C, IC50)
How it was run: as §2

[7] = biological target: KRAS G12V (Homo sapiens, UniProt P01116+P62937, G12V); assay: Disruption of BRAF RBD interaction with Ras (FRET / MOA assay, with Cyclophilin A); format: biochemical
KRAS G12V, sequence (P01116 1-169 isoform P01116-2 G12V limits assumed): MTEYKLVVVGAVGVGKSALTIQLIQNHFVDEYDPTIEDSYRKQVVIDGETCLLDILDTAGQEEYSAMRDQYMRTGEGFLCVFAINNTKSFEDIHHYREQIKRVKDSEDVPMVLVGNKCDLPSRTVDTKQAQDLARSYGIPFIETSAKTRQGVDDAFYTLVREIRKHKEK
KRAS G12V, sequence (P62937 whole entry): as the sequence (P62937 whole entry) above
How it was run: (§3)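 First, compounds at a ten-point threefold dilution series (highest final concentration 30 μM) were incubated with nucleotide-loaded K-Ras, Cyclophilin A and BRAF RBD for 3 h at 25 °C. Next, detection antibodies were added for 1.5 h. Finally, IC50 was calculated from TR-FRET ratio decreases against DMSO controls.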

[8] = biological target: KRAS G12S (Homo sapiens, UniProt P01116+P62937, G12S); assay: as above; format: biochemical
KRAS G12S, sequence (P01116 1-169 isoform P01116-2 G12S limits assumed): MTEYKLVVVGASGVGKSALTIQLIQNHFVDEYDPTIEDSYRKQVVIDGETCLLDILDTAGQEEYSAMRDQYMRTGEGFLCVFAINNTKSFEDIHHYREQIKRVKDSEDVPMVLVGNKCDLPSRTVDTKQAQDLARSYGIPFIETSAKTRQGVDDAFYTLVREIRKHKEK
KRAS G12S, sequence (P62937 whole entry): as the sequence (P62937 whole entry) above
How it was run: as §3

[9] = biological target: NRAS G12C (Homo sapiens, UniProt P01111+P62937, G12C); assay: as above; format: biochemical
NRAS G12C, sequence (P01111 whole entry G12C): as the sequence (P01111 whole entry Q61K) above, with G12C, K61Q counted along it
NRAS G12C, sequence (P62937 whole entry): as the sequence (P62937 whole entry) above

[10] = biological target: KRAS WT (Homo sapiens, UniProt P01116+P62937); assay: as above; format: biochemical
KRAS WT, sequence (P01116 1-169 isoform P01116-2 limits assumed): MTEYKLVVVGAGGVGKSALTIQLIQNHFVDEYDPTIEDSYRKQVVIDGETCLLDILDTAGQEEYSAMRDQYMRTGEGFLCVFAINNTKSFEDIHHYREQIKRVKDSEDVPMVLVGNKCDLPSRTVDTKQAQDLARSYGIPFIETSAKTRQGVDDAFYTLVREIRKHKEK
KRAS WT, sequence (P62937 whole entry): as the sequence (P62937 whole entry) above
How it was run: as §3

[11] = biological target: KRAS G12D (Homo sapiens, UniProt P01116+P62937, G12D); assay: as above; format: biochemical
KRAS G12D, sequence (P01116 1-169 isoform P01116-2 G12D limits assumed): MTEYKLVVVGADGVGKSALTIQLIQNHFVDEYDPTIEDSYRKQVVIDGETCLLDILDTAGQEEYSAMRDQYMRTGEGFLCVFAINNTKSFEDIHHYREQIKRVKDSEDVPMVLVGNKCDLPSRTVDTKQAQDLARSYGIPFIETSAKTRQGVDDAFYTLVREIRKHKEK
KRAS G12D, sequence (P62937 whole entry): as the sequence (P62937 whole entry) above
How it was run: as §3

[12] = biological target: KRAS G12C (Homo sapiens, UniProt P01116+P62937, G12C); assay: as above; format: biochemical
KRAS G12C, sequence (P01116 1-169 isoform P01116-2 G12C): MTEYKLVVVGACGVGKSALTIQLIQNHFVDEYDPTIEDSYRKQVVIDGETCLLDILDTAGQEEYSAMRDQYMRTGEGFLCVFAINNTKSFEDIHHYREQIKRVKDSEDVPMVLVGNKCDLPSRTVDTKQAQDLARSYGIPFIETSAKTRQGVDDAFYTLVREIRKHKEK
KRAS G12C, sequence (P62937 whole entry): as the sequence (P62937 whole entry) above
How it was run: as §3

[13] = biological target: KRAS G13C (Homo sapiens, UniProt P01116+P62937, G13C); assay: as above; format: biochemical
KRAS G13C, sequence (P01116 1-169 isoform P01116-2 G13C): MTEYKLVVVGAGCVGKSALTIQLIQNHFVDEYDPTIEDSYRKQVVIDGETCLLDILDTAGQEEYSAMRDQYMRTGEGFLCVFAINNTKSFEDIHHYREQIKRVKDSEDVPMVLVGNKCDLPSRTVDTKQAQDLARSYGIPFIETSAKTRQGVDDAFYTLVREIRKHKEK
KRAS G13C, sequence (P62937 whole entry): as the sequence (P62937 whole entry) above
How it was run: as §3

[14] = biological target: KRAS G13D (Homo sapiens, UniProt P01116+P62937, G13D); assay: as above; format: biochemical
KRAS G13D, sequence (P01116 1-169 isoform P01116-2 G13D limits assumed): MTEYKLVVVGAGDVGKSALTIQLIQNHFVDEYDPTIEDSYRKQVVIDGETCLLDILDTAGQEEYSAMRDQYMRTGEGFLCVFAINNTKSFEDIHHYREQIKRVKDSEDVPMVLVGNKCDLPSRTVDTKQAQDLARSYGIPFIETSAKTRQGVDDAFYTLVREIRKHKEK
KRAS G13D, sequence (P62937 whole entry): as the sequence (P62937 whole entry) above
How it was run: as §3

[15] = NRAS Q61R, read-out: NRAS Q61R FRET data IC50
[16] = KRAS Q61H, read-out: KRAS Q61H FRET data IC50
[17] = NRAS Q61K, read-out: NRAS Q61K FRET data IC50
[18] = NRAS WT, read-out: NRAS WT FRET data IC50
[19] = KRAS G12V, read-out: KRAS G12V FRET data IC50
[20] = read-out: KRAS G12S FRET data, IC50
[21] = NRAS G12C, read-out: NRAS G12C FRET data IC50
[22] = KRAS WT, read-out: KRAS WT FRET data IC50
[23] = read-out: KRAS G12D FRET data, IC50
[24] = read-out: KRAS G12C FRET data, IC50
[25] = read-out: KRAS G13C FRET data, IC50
[26] = KRAS G13D, read-out: KRAS G13D FRET data IC50

NRAS Q61R, sequence (P01111 whole entry Q61R): as the sequence (P01111 whole entry Q61K) above, with K61R counted along it
NRAS Q61R, sequence (P62937 whole entry): as the sequence (P62937 whole entry) above

SMILES | IC50 [1, 15] [nM] | IC50 [2, 16] [nM] | IC50 [3, 17] [nM] | IC50 [4, 18] [nM] | IC50 [6] [nM] | IC50 [7, 19] [nM] | IC50 [8, 20] [nM] | IC50 [9, 21] [nM] | IC50 [10, 22] [nM] | IC50 [11, 23] [nM] | IC50 [12, 24] [nM] | IC50 [13, 25] [nM] | IC50 [14, 26] [nM] | IC50 [5] [nM] | also measured
CCn1c(-c2cccnc2[C@H](C)OC)c2c3cc(ccc31)-c1csc(n1)C[C@H](NC(=O)[C@H](C(C)C)N(C)C(=O)N1CC3(C1)CS(=O)(=O)CCN3C)C(=O)N1CCC[C@H](N1)C(=O)OCC(C)(C)C2 [Example A482] | 1000 to 10000 | 100 to 1000 | 100 to 1000 | 1000 to 10000 | 100 to 1000 | 1000 to 10000 | 1000 to 10000 | 100 to 1000 | 1000 to 10000 | > 10000 | 1000 to 10000 | 1000 to 10000 | 1000 to 10000 | 100 to 1000 | –
CCn1c(-c2cccnc2[C@H](C)OC)c2c3cc(ccc31)-c1csc(n1)C[C@H](NC(=O)[C@H](C(C)C)N(C)C(=O)N1CCC[C@@H](N(C)C)CC1)C(=O)N1CCC[C@H](N1)C(=O)OCC(C)(C)C2 [Example A494] | – | – | – | – | 10 to 100 | – | – | – | – | – | – | – | – | 10 to 100 | IC50 ([1]; NRAS Q61R FRET data IC50, NRAS Q61R): 10 to 100 nM; IC50 ([2]; KRAS Q61H FRET data IC50, KRAS Q61H): 10 to 100 nM; IC50 ([3]; NRAS Q61K FRET data IC50, NRAS Q61K): 10 to 100 nM; IC50 ([4]; NRAS WT FRET data IC50, NRAS WT): 10 to 100 nM; IC50 ([7]; KRAS G12V FRET data IC50, KRAS G12V): 100 to 1000 nM; IC50 ([8]; KRAS G12S FRET data, IC50): 10 to 100 nM; IC50 ([9]; NRAS G12C FRET data IC50, NRAS G12C): 10 to 100 nM; IC50 ([10]; KRAS WT FRET data IC50, KRAS WT): 10 to 100 nM; IC50 ([11]; KRAS G12D FRET data, IC50): 10 to 100 nM; IC50 ([12]; KRAS G12C FRET data, IC50): 10 to 100 nM; IC50 ([13]; KRAS G13C FRET data, IC50): 100 to 1000 nM; IC50 ([14]; KRAS G13D FRET data IC50, KRAS G13D): 100 to 1000 nM
CCn1c(-c2cccnc2[C@H](C)OC)c2c3cc(ccc31)-c1csc(n1)C[C@H](NC(=O)[C@H](C(C)C)N(C)C(=O)N1C[C@H]3CN(C)C[C@H]31)C(=O)N1CCC[C@H](N1)C(=O)OCC(C)(C)C2 [Example A497] | 1000 to 10000 | 100 to 1000 | 100 to 1000 | 100 to 1000 | 100 to 1000 | 1000 to 10000 | 1000 to 10000 | 100 to 1000 | 1000 to 10000 | 1000 to 10000 | 100 to 1000 | 100 to 1000 | 1000 to 10000 | 100 to 1000 | –
CCn1c(-c2cccnc2[C@H](C)OC)c2c3cc(ccc31)-c1csc(n1)C[C@H](NC(=O)[C@H](C(C)C)N(C)C(=O)N1CCCC13CCN(C)CC3)C(=O)N1CCC[C@H](N1)C(=O)OCC(C)(C)C2 [Example A498] | 100 to 1000 | 10 to 100 | 100 to 1000 | 10 to 100 | 10 to 100 | 100 to 1000 | 10 to 100 | 10 to 100 | 10 to 100 | 100 to 1000 | 10 to 100 | 100 to 1000 | 100 to 1000 | 100 to 1000 | –

Second part, led by results:

IC50 [1, 15] [nM] | IC50 [2, 16] [nM] | IC50 [3, 17] [nM] | IC50 [4, 18] [nM] | IC50 [6] [nM] | IC50 [7, 19] [nM] | IC50 [8, 20] [nM] | IC50 [9, 21] [nM] | IC50 [10, 22] [nM] | IC50 [11, 23] [nM] | IC50 [12, 24] [nM] | IC50 [13, 25] [nM] | IC50 [14, 26] [nM] | SMILES | IC50 [5] [nM] | also measured
100 to 1000 | 10 to 100 | 100 to 1000 | 100 to 1000 | 10 to 100 | 100 to 1000 | 100 to 1000 | 100 to 1000 | 100 to 1000 | 100 to 1000 | 100 to 1000 | 100 to 1000 | 100 to 1000 | CCn1c(-c2cccnc2[C@H](C)OC)c2c3cc(ccc31)-c1csc(n1)C[C@H](NC(=O)[C@H](C(C)C)N(C)C(=O)N1CCCC[C@@H](N(C)C)C1)C(=O)N1CCC[C@H](N1)C(=O)OCC(C)(C)C2 [Example A492] | 100 to 1000 | –
1000 to 10000 | 100 to 1000 | 100 to 1000 | 100 to 1000 | 100 to 1000 | 100 to 1000 | 1000 to 10000 | 100 to 1000 | 100 to 1000 | 1000 to 10000 | 100 to 1000 | 1000 to 10000 | 1000 to 10000 | CCn1c(-c2cccnc2[C@H](C)OC)c2c3cc(ccc31)-c1csc(n1)C[C@H](NC(=O)[C@H](C(C)C)N(C)C(=O)N1C3CC1CS(=O)(=O)C3)C(=O)N1CCC[C@H](N1)C(=O)OCC(C)(C)C2 [Example A496] | 100 to 1000 | –
